These are literature values, as cited in patent US20170042798A1, “USE OF BIDENS EXTRACT TO REDUCE SIGNS OF SKIN AGING” (KIMBERLY-CLARK WORLDWIDE ,INC., priority 2014, published 2017).

The test system of the data set is 3T3-L1 cells. To be noted: literature, Nutr. Res. 32(6): 439-447.

In the case of Fucoidan, the adipogenesis result is listed as “inhibit adipogenesis”.
